Activity calls are given as the source filed them. The rule behind the calls is not given here. Residues, ends and D or L forms follow the SMILES beside them.
Biological target: Growth/differentiation factor 8 (Homo sapiens) (UniProt O14793)
Assay: Inhibition of myostatin (unknown origin) expressed in HEK293 cells at 10 uM incubated for 4 hrs by dual luciferase reporter gene assay
Type: cell-based

Growth/differentiation factor 8 (Homo sapiens), sequence (O14793 267-375 limits assumed): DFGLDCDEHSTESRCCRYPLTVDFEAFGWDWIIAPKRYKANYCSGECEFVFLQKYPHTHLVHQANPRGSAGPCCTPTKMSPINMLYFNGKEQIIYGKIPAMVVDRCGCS

| inhibition | SMILES |
| --- | --- |
| Active | CC[C@H](C)[C@H](NC(=O)[C@H](CCSC)NC(=O)[C@H](Cc1c[nH]c2ccccc12)NC(=O)[C@H](CCCCN)NC(=O)[C@H](Cc1ccccc1)NC(=O)[C@H](CC(C)C)NC(=O)[C@@H](NC(=O)[C@H](C)NC(=O)[C@H](CC(=O)O)NC(=O)[C@H](CC(N)=O)NC(=O)[C@@H](N)C(C)C)[C@@H](C)O)C(=O)N[C@@H](Cc1ccccc1)C(=O)N[C@@H](CC(N)=O)C(=O)NCC(N)=O (H-VNDATLFKWMIFNG-NH2) |
| inactive | CC[C@H](C)[C@H](NC(=O)[C@H](C)NC(=O)[C@H](Cc1c[nH]c2ccccc12)NC(=O)[C@H](CCCCN)NC(=O)[C@H](Cc1ccccc1)NC(=O)[C@H](CC(C)C)NC(=O)[C@@H](NC(=O)[C@H](CC(N)=O)NC(=O)[C@H](CC(=O)O)NC(=O)[C@H](CC(N)=O)NC(=O)[C@@H](N)C(C)C)[C@@H](C)O)C(=O)N[C@@H](Cc1ccccc1)C(=O)N[C@@H](CC(N)=O)C(=O)NCC(N)=O (H-VNDNTLFKWAIFNG-NH2) |
| inactive | CC[C@H](C)[C@H](NC(=O)[C@H](CCSC)NC(=O)[C@H](Cc1c[nH]c2ccccc12)NC(=O)[C@H](CCCCN)NC(=O)[C@H](Cc1ccccc1)NC(=O)[C@H](CC(C)C)NC(=O)[C@@H](NC(=O)[C@H](CC(N)=O)NC(=O)[C@H](CC(=O)O)NC(=O)[C@H](CC(N)=O)NC(=O)[C@@H](N)C(C)C)[C@@H](C)O)C(=O)N[C@@H](Cc1ccccc1)C(=O)N[C@@H](CC(N)=O)C(N)=O (H-VNDNTLFKWMIFN-NH2) |
| Active | CC[C@H](C)[C@H](NC(=O)[C@H](CCSC)NC(=O)[C@H](Cc1c[nH]c2ccccc12)NC(=O)[C@H](CCCCN)NC(=O)[C@H](Cc1ccccc1)NC(=O)[C@H](CC(C)C)NC(=O)[C@@H](NC(=O)[C@H](CC(N)=O)NC(=O)[C@H](CC(=O)O)NC(=O)[C@H](CC(N)=O)NC(=O)[C@@H](N)C(C)C)[C@@H](C)O)C(=O)N[C@@H](Cc1ccccc1)C(=O)N[C@@H](CC(N)=O)C(=O)N[C@@H](C)C(N)=O (H-VNDNTLFKWMIFNA-NH2) |
| inactive | CC[C@H](C)[C@H](NC(=O)[C@H](CCSC)NC(=O)[C@H](Cc1c[nH]c2ccccc12)NC(=O)[C@H](CCCCN)NC(=O)[C@H](C)NC(=O)[C@H](CC(C)C)NC(=O)[C@@H](NC(=O)[C@H](CC(N)=O)NC(=O)[C@H](CC(=O)O)NC(=O)[C@H](CC(N)=O)NC(=O)[C@@H](N)C(C)C)[C@@H](C)O)C(=O)N[C@@H](Cc1ccccc1)C(=O)N[C@@H](CC(N)=O)C(=O)NCC(N)=O (H-VNDNTLAKWMIFNG-NH2) |
| Active | CC[C@H](C)[C@H](NC(=O)[C@H](CCSC)NC(=O)[C@H](Cc1c[nH]c2ccccc12)NC(=O)[C@H](CCCCN)NC(=O)[C@H](Cc1ccccc1)NC(=O)[C@H](CC(C)C)NC(=O)[C@@H](NC(=O)[C@H](CC(N)=O)NC(=O)[C@H](CC(=O)O)NC(=O)[C@@H](N)CC(N)=O)[C@@H](C)O)C(=O)N[C@@H](Cc1ccccc1)C(=O)N[C@@H](CC(N)=O)C(N)=O (H-NDNTLFKWMIFN-NH2) |
| inactive | CC[C@H](C)[C@H](NC(=O)[C@H](CCSC)NC(=O)[C@H](Cc1c[nH]c2ccccc12)NC(=O)[C@H](CCCCN)NC(=O)[C@H](Cc1ccccc1)NC(=O)[C@H](CC(C)C)NC(=O)[C@@H](NC(=O)[C@H](CC(N)=O)NC(=O)[C@H](CC(=O)O)NC(=O)[C@H](CC(N)=O)NC(=O)[C@@H](N)C(C)C)[C@@H](C)O)C(=O)N[C@@H](C)C(=O)N[C@@H](CC(N)=O)C(=O)NCC(N)=O (H-VNDNTLFKWMIANG-NH2) |
| inactive | CC[C@H](C)[C@H](NC(=O)[C@H](CCSC)NC(=O)[C@H](C)NC(=O)[C@H](CCCCN)NC(=O)[C@H](Cc1ccccc1)NC(=O)[C@H](CC(C)C)NC(=O)[C@@H](NC(=O)[C@H](CC(N)=O)NC(=O)[C@H](CC(=O)O)NC(=O)[C@H](CC(N)=O)NC(=O)[C@@H](N)C(C)C)[C@@H](C)O)C(=O)N[C@@H](Cc1ccccc1)C(=O)N[C@@H](CC(N)=O)C(=O)NCC(N)=O (H-VNDNTLFKAMIFNG-NH2) |
| inactive | CC[C@H](C)[C@H](NC(=O)[C@H](CCSC)NC(=O)[C@H](Cc1c[nH]c2ccccc12)NC(=O)[C@H](CCCCN)NC(=O)[C@H](Cc1ccccc1)NC(=O)[C@H](CC(C)C)NC(=O)[C@@H](NC(=O)[C@H](CC(N)=O)NC(=O)[C@H](CC(=O)O)NC(=O)[C@H](CC(N)=O)NC(=O)[C@@H](NC(=O)[C@H](CC(=O)O)NC(=O)[C@H](CCC(=O)O)NC(=O)[C@H](CCC(=O)O)NC(=O)[C@@H](NC(=O)[C@@H](N)Cc1c[nH]c2ccccc12)[C@@H](C)O)C(C)C)[C@@H](C)O)C(=O)N[C@@H](Cc1ccccc1)C(=O)N[C@@H](CC(N)=O)C(=O)NCC(N)=O (H-WTEEDVNDNTLFKWMIFNG-NH2) |
| inactive | CC[C@H](C)[C@H](NC(=O)[C@H](CCSC)NC(=O)[C@H](Cc1c[nH]c2ccccc12)NC(=O)[C@H](CCCCN)NC(=O)[C@H](Cc1ccccc1)NC(=O)[C@H](CC(C)C)NC(=O)[C@@H](NC(=O)[C@H](CC(N)=O)NC(=O)[C@H](CC(=O)O)NC(=O)[C@H](CC(N)=O)NC(=O)[C@@H](NC(=O)[C@H](CC(=O)O)NC(=O)[C@H](CCC(=O)O)NC(=O)[C@@H](N)CCC(=O)O)C(C)C)[C@@H](C)O)C(=O)N[C@@H](Cc1ccccc1)C(=O)N[C@@H](CC(N)=O)C(=O)NCC(N)=O (H-EEDVNDNTLFKWMIFNG-NH2) |
| inactive | CC[C@H](C)[C@H](NC(=O)[C@H](CCSC)NC(=O)[C@H](Cc1c[nH]c2ccccc12)NC(=O)[C@H](CCCCN)NC(=O)[C@H](Cc1ccccc1)NC(=O)[C@H](C)NC(=O)[C@@H](NC(=O)[C@H](CC(N)=O)NC(=O)[C@H](CC(=O)O)NC(=O)[C@H](CC(N)=O)NC(=O)[C@@H](N)C(C)C)[C@@H](C)O)C(=O)N[C@@H](Cc1ccccc1)C(=O)N[C@@H](CC(N)=O)C(=O)NCC(N)=O (H-VNDNTAFKWMIFNG-NH2) |
| inactive | CC[C@H](C)[C@H](NC(=O)[C@H](CCSC)NC(=O)[C@H](Cc1c[nH]c2ccccc12)NC(=O)[C@H](CCCCN)NC(=O)[C@H](Cc1ccccc1)NC(=O)[C@H](CC(C)C)NC(=O)[C@@H](NC(=O)[C@H](CC(N)=O)NC(=O)[C@H](CC(=O)O)NC(=O)[C@H](CC(N)=O)NC(=O)[C@@H](N)C(C)C)[C@@H](C)O)C(=O)N[C@@H](Cc1ccccc1)C(=O)N[C@@H](C)C(=O)NCC(N)=O (H-VNDNTLFKWMIFAG-NH2) |
| inactive | CC[C@H](C)[C@H](NC(=O)[C@H](CCSC)NC(=O)[C@H](Cc1c[nH]c2ccccc12)NC(=O)[C@H](CCCCN)NC(=O)[C@H](Cc1ccccc1)NC(=O)[C@H](CC(C)C)NC(=O)[C@@H](NC(=O)[C@H](CC(N)=O)NC(=O)[C@H](CC(=O)O)NC(=O)[C@@H](N)CC(N)=O)[C@@H](C)O)C(=O)N[C@@H](Cc1ccccc1)C(=O)N[C@@H](CC(N)=O)C(=O)NCC(N)=O (H-NDNTLFKWMIFNG-NH2) |
| inactive | CSCC[C@H](NC(=O)[C@H](Cc1c[nH]c2ccccc12)NC(=O)[C@H](CCCCN)NC(=O)[C@H](Cc1ccccc1)NC(=O)[C@H](CC(C)C)NC(=O)[C@@H](NC(=O)[C@H](CC(N)=O)NC(=O)[C@H](CC(=O)O)NC(=O)[C@H](CC(N)=O)NC(=O)[C@@H](N)C(C)C)[C@@H](C)O)C(=O)N[C@@H](C)C(=O)N[C@@H](Cc1ccccc1)C(=O)N[C@@H](CC(N)=O)C(=O)NCC(N)=O (H-VNDNTLFKWMAFNG-NH2) |
| inactive | CC[C@H](C)[C@H](NC(=O)[C@H](CCSC)NC(=O)[C@H](Cc1c[nH]c2ccccc12)NC(=O)[C@H](C)NC(=O)[C@H](Cc1ccccc1)NC(=O)[C@H](CC(C)C)NC(=O)[C@@H](NC(=O)[C@H](CC(N)=O)NC(=O)[C@H](CC(=O)O)NC(=O)[C@H](CC(N)=O)NC(=O)[C@@H](N)C(C)C)[C@@H](C)O)C(=O)N[C@@H](Cc1ccccc1)C(=O)N[C@@H](CC(N)=O)C(=O)NCC(N)=O (H-VNDNTLFAWMIFNG-NH2) |
| inactive | CC[C@H](C)[C@H](NC(=O)[C@H](CCSC)NC(=O)[C@H](Cc1c[nH]c2ccccc12)NC(=O)[C@H](CCCCN)NC(=O)[C@H](Cc1ccccc1)NC(=O)[C@H](CC(C)C)NC(=O)[C@H](C)NC(=O)[C@H](CC(N)=O)NC(=O)[C@H](CC(=O)O)NC(=O)[C@H](CC(N)=O)NC(=O)[C@@H](N)C(C)C)C(=O)N[C@@H](Cc1ccccc1)C(=O)N[C@@H](CC(N)=O)C(=O)NCC(N)=O (H-VNDNALFKWMIFNG-NH2) |
| Active | CC[C@H](C)[C@H](NC(=O)[C@H](CCSC)NC(=O)[C@H](Cc1c[nH]c2ccccc12)NC(=O)[C@H](CCCCN)NC(=O)[C@H](Cc1ccccc1)NC(=O)[C@H](CC(C)C)NC(=O)[C@@H](NC(=O)[C@H](CC(N)=O)NC(=O)[C@H](C)NC(=O)[C@H](CC(N)=O)NC(=O)[C@@H](N)C(C)C)[C@@H](C)O)C(=O)N[C@@H](Cc1ccccc1)C(=O)N[C@@H](CC(N)=O)C(=O)NCC(N)=O (H-VNANTLFKWMIFNG-NH2) |
| inactive | CC[C@H](C)[C@H](NC(=O)[C@H](CCSC)NC(=O)[C@H](Cc1c[nH]c2ccccc12)NC(=O)[C@H](CCCCN)NC(=O)[C@H](Cc1ccccc1)NC(=O)[C@H](CC(C)C)NC(=O)[C@@H](NC(=O)[C@H](CC(N)=O)NC(=O)[C@H](CC(=O)O)NC(=O)[C@H](C)NC(=O)[C@@H](N)C(C)C)[C@@H](C)O)C(=O)N[C@@H](Cc1ccccc1)C(=O)N[C@@H](CC(N)=O)C(=O)NCC(N)=O (H-VADNTLFKWMIFNG-NH2) |
| inactive | CC[C@H](C)[C@H](NC(=O)[C@H](CCSC)NC(=O)[C@H](Cc1c[nH]c2ccccc12)NC(=O)[C@H](CCCCN)NC(=O)[C@H](Cc1ccccc1)NC(=O)[C@H](CC(C)C)NC(=O)[C@@H](NC(=O)[C@H](CC(N)=O)NC(=O)[C@H](CC(=O)O)NC(=O)[C@H](CC(N)=O)NC(=O)[C@H](C)N)[C@@H](C)O)C(=O)N[C@@H](Cc1ccccc1)C(=O)N[C@@H](CC(N)=O)C(=O)NCC(N)=O (H-ANDNTLFKWMIFNG-NH2) |
